# Measured values as given in paper PMC12635268, “Novel antimicrobial peptides and peptide-microbiome crosstalk in Appalachian salamander skin” (NPJ Biofilms and Microbiomes, 2025).
# Key:
# Assay in all cases: microbe, parasite or virus in culture
# [1] = system: K. pneumoniae ATCC 13883; conditions: K. pneumoniae 13883
# In short: (§1)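 Peptides tested 0.25–128 μg/mL (2-fold dilutions, TFA/BSA carrier) against 1 × 10⁵ CFU/mL inoculum in CAMHB, duplicates.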
# [2] = system: S. aureus ATCC 43300; conditions: S. aureus 43300
# In short: as §1
# [3] = system: E. faecium ATCC 49224; conditions: E. faecium 49224
# In short: as §1
# [4] = system: E. faecium ATCC 19434; conditions: E. faecium 19434
# In short: as §1
# [5] = system: S. aureus ATCC 25923; conditions: S. aureus 25923
# In short: as §1
# [6] = system: E. coli ATCC 35218; conditions: E. coli 35218
# In short: as §1
# [7] = system: P. aeruginosa ATCC 27853; conditions: P. aeruginosa 27853
# In short: as §1
# [8] = system: A. baumannii ATCC 19606; conditions: A. baumannii 19606
# In short: as §1
# [9] = system: K. pneumoniae ATCC 700603; conditions: K. pneumoniae 700603
# In short: as §1
# [10] = system: P. aeruginosa MRSN 5519; conditions: P. aeruginosa 5519
# In short: as §1
# [11] = system: P. aeruginosa PA01 (Si); format: cell-based; conditions: P. aeruginosa PA01 (Si), not typical ESKAPEE strain
# Source text: Supplement 41522_2025_837_MOESM13_ESM.xlsx, sheet "Table_S13_ESKAPEE-MIC" | column: Bacterial MIC (µg/mL)
# [12] = system: P. aeruginosa PA01; format: cell-based
# In short: as §1
# [13] = CAMHB, 1 × 10⁵ CFU/mL, 0.25 to 128 μg/mL, 37 °C 20 h, duplicate, read visually (CLSI)
compound,measurement,setting,value
"CC[C@H](C)[C@H](NC(=O)[C@H](CCCCN)NC(=O)[C@H](CCC(=O)O)NC(=O)[C@H](CCCCN)NC(=O)[C@H](CO)NC(=O)[C@H](CCCCN)NC(=O)[C@H](CCCNC(=N)N)NC(=O)[C@H](Cc1ccccc1)NC(=O)[C@H](Cc1ccccc1)NC(=O)[C@H](CC(=O)O)NC(=O)CNC(=O)[C@H](CC(C)C)NC(=O)[C@@H](N)CC(C)C)C(=O)NCC(=O)N[C@@H](CCCCN)C(=O)N[C@@H](CCC(=O)O)C(=O)N[C@@H](Cc1ccccc1)C(=O)N[C@@H](CCCCN)C(=O)N[C@@H](CCCNC(=N)N)C(=O)N[C@H](C(=O)N[C@H](C(=O)N[C@@H](CCC(N)=O)C(=O)N[C@@H](CCCNC(=N)N)C(=O)N[C@H](C(=O)N[C@@H](CCCCN)C(=O)N[C@@H](CC(=O)O)C(=O)N[C@@H](Cc1ccccc1)C(=O)N[C@@H](CC(C)C)C(=O)N[C@@H](CCCNC(=N)N)C(=O)N[C@@H](CC(N)=O)C(=O)N[C@@H](CC(C)C)C(=O)N[C@H](C(=O)N1CCC[C@H]1C(=O)N[C@@H](CCCNC(=N)N)C(=O)N[C@H](C(=O)N[C@@H](CCC(=O)O)C(=O)N[C@@H](CO)C(=O)O)[C@@H](C)O)C(C)C)[C@@H](C)CC)C(C)C)[C@@H](C)CC [LL-37, reference compound]",MIC,[1]; [13],4 µg/mL
same,Bacterial MIC,[1]; Week 1 (12/6/2023),4 µg/mL
same,Bacterial MIC,[1]; Week 2 (12/14/2023),8 µg/mL
same,MIC,[2]; [13],>128 µg/mL
same,Bacterial MIC,[2]; Week 1 (12/6/2023),>128.000 µg/mL
same,Bacterial MIC,[2]; Week 2 (12/14/2023),>128.000 µg/mL
same,MIC,[3]; [13],32 µg/mL
same,Bacterial MIC,[3]; Week 1 (12/6/2023),32 µg/mL
same,Bacterial MIC,[3]; Week 2 (12/14/2023),64 µg/mL
same,MIC,[4]; [13],32 µg/mL
same,Bacterial MIC,[4]; Week 1 (12/6/2023),32 µg/mL
same,Bacterial MIC,[4]; Week 2 (12/14/2023),64 µg/mL
same,MIC,[5]; [13],>128 µg/mL
same,Bacterial MIC,[5]; Week 1 (12/6/2023),>128.000 µg/mL
same,Bacterial MIC,[5]; Week 2 (12/14/2023),>128.000 µg/mL
same,MIC,[6]; [13],8 µg/mL
same,Bacterial MIC,[6]; Week 2 (12/14/2023),8 µg/mL
same,MIC,[7]; [13],8 µg/mL
same,Bacterial MIC,[7]; Week 1 (12/6/2023),8 µg/mL
same,Bacterial MIC,[7]; Week 2 (12/14/2023),8 µg/mL
same,MIC,[8]; [13],2 µg/mL
same,Bacterial MIC,[8]; Week 1 (12/6/2023),2 µg/mL
same,MIC,[9]; [13],32 µg/mL
same,Bacterial MIC,[9]; Week 1 (12/6/2023),32 µg/mL
same,MIC,[10]; [13],16 µg/mL
same,Bacterial MIC,[10]; Week 1 (12/6/2023),16 µg/mL
same,Bacterial MIC,[10]; Week 2 (12/14/2023),16 µg/mL
same,Bacterial MIC,[11]; Week 1 (12/6/2023),4 µg/mL
same,Bacterial MIC,[11]; Week 2 (12/14/2023),4 to 8 µg/mL
same,Bacterial MIC,"[12]; P. aeruginosa 15692 (PAO1), Week 2 (12/14/2023)",16 µg/mL
same,MIC,"[12]; P. aeruginosa PA01, CAMHB, 1 × 10⁵ CFU/mL, 0.25 to 128 μg/mL, 37 °C 20 h, duplicate, read visually (CLSI)",4 µg/mL
